# Assay results reported in US11078181B2, “Diaryl pyrazole compound and formulation for controlling harmful organisms” (Nippon Soda Co., Ltd., priority 2016, dated 2021).
# Legend:
# Type in all cases: in vivo
# [1] = test system: adult Phyllotreta striolata; assay: Efficacy test against Phyllotreta striolata (bok-choi seedling spray); conditions: 168 h, sprayed on bok-choi seedlings, adults, 7 days after inoculation, read-out: insect mortality rate
# Procedure: (§1) 5 parts of the compound of the present invention, 93.6 parts of dimethylformamide and 1.4 parts of polyoxyethylene alkyl aryl ether were mixed and dissolved to prepare Emulsion (I) including 5% of an active ingredient.
# (§2) An insect mortality rate and a controlling rate were calculated by the numerical equations shown below. Insect mortality rate(%)={(Number of dead insects)/(Number of sample insects)}×100 Controlling rate={1−(Nt)/(Nc)}×100 • wherein • Nt: number of parasites in spray-treated area; and • Nc: number of parasites in non-treated area
# Emulsion (I) was diluted with water so that the concentration of the compound of the present invention was 125 ppm, to prepare a diluted liquid for testing. The aforementioned diluted liquid was sprayed on bok-choi seedlings (7th major leaf-development period) planted in No. 3 pots. After the bok-choi seedlings were subjected to air-drying, the seedlings were placed in plastic cups, followed by inoculating 10 adult Phyllotreta striolata. […] Mortality was investigated 7 days after inoculation, and the insect mortality rate was calculated. […]
# Emulsion (I) was diluted with water so that the concentration of the compound of the present invention was 8 ppm, to prepare a diluted liquid for testing. […] Mortality was investigated 7 days after inoculation, and the insect mortality rate was calculated. […]
# Plutella xylostella = assay: Efficacy test against Plutella xylostella (cabbage leaf dip); conditions: foliar, 72 h, cabbage leaves soaked, second-instar larvae, 3 days after inoculation, read-out: insect mortality rate
# Procedure: as §1, §2
# Emulsion (I) was diluted with water so that the concentration of the compound of the present invention was 125 ppm. Cabbage leaves were soaked in the diluted liquid for 30 seconds. Subsequently, the cabbage leaves were put on Petri dishes, followed by inoculating 5 second-instar larvae of Plutella xylostella. The Petri dishes were placed in a thermostatic chamber at a temperature of 25° C. and humidity of 60%. Mortality was investigated 3 days after inoculation, and the insect mortality rate was calculated. The test was performed twice.
# [2] = test system: first-instar larvae of Culex pipiens molestus; assay: Efficacy test against Culex pipiens molestus (larvae in chemical liquid); conditions: 24 h, first-instar larvae in 100 mL chemical liquid, after one day, read-out: insect mortality rate
# Procedure: as §1, §2
# Emulsion (I) was diluted with water so that the concentration of the compound of the present invention was 10 ppm, to prepare a chemical liquid for testing. 20 first-instar larvae of Culex pipiens molestus were released in 100 mL of the chemical liquid. After one day, the number of dead insects was counted, and the insect mortality rate was calculated. The test was performed twice.
# Aphis gossypii = assay: Efficacy test against Aphis gossypii (cucumber seedling spray); conditions: 96 h, sprayed on cucumber seedlings, nymphs, 4 days after spraying, read-out: insect mortality rate
# Procedure: as §1, §2
# Emulsion (I) was diluted with water so that the concentration of the compound of the present invention was 125 ppm. Cucumbers were raised in No. 3 pots and the first leaves were inoculated with nymphs of Aphis gossypii. The diluted emulsion mentioned above was sprayed onto the cucumber seedlings. The aforementioned cucumber seedlings were then placed in a thermostatic chamber with a temperature of 25° C. and humidity of 60%. Mortality was investigated 4 days after spraying was carried out, and the insect mortality rate of Aphis gossypii was calculated. The test was performed twice.
# Nilaparvata lugens = assay: Efficacy test against Nilaparvata lugens (rice seedling dip); conditions: 168 h, rice seedlings soaked, second-instar larvae, 7 days after inoculation, read-out: insect mortality rate
# Procedure: as §1, §2
# Emulsion (I) was diluted with water so that the concentration of the compound of the present invention was 125 ppm. Rice seedlings were soaked in the diluted liquid for 30 seconds, and subjected to air-drying. Subsequently, the rice seedlings were placed in plastic cases, followed by inoculating 5 second-instar larvae of Nilaparvata lugens. The plastic cases were placed in a thermostatic chamber at a temperature of 25° C. and humidity of 65%. Mortality was investigated 7 days after inoculation, and the insect mortality rate was calculated. The test was performed twice.
# Aphis craccivora = assay: Efficacy test against Aphis craccivora (black-eyed pea spray); conditions: in Vigna unguiculata, 96 h, sprayed on black-eyed pea plants, nymphs, 4 days after spraying, read-out: insect mortality rate
# Procedure: as §1, §2
# Black-eyed pea plants were raised in No. 3 pots and the primary leaves were inoculated with nymphs of Aphis craccivora. Emulsion (I) was diluted with water so that the concentration of the compound of the present invention was 125 ppm. Subsequently, the aforementioned diluted liquid was sprayed on the black-eyed pea plants on which the nymphs of Aphis craccivora were parasitic. The aforementioned black-eyed pea plants were then placed in a thermostatic chamber with a temperature of 25° C. and humidity of 60%. Mortality was investigated 4 days after spraying was carried out, and the insect mortality rate of Aphis craccivora was calculated. The test was performed twice.
smiles,measurement,setting,value
"CCS(=O)(=O)c1ccc(-n2cncn2)nc1-n1ncc(-c2ccc(OC(F)(F)F)cc2)c1C [1-1, 3-(ethylsulfonyl)-2-(5-methyl-4-(4-(trifluoromethoxy)phenyl)-1H-pyrazol-1-yl)-6-(1H-1,2,4-triazol-1-yl)pyridine]",mortality at 8 ppm,[1]; 8 ppm,≥ 80%
same,mortality at 125 ppm,[1]; 125 ppm,≥ 80%
same,mortality at 125 ppm,Plutella xylostella,≥ 80%
same,mortality at 10 ppm,[2],100%
same,mortality at 125 ppm,Aphis gossypii,≥ 80%
same,mortality at 125 ppm,Nilaparvata lugens,≥ 80%
same,mortality at 125 ppm,Aphis craccivora,≥ 80%
